Reference: paper PMC9604483, “Crystal Structure of CYP3A4 Complexed with Fluorol Identifies the Substrate Access Channel as a High-Affinity Ligand Binding Site” (International Journal of Molecular Sciences, 2022)
Where two headings read alike, the source gives them in different places.

Assays:
T224A CYP3A4 [1] = target: T1, T224A CYP3A4 (Homo sapiens, UniProt P08684, T224A); test: Stopped-flow kinetics of CYP3A4-fluorol complex formation (fluorol emission decay); type: binding
T1 construct: made in house
Experimental: (§1) During equilibrium titrations, fluorescence spectra were usually recorded 10–15 min after addition of CYP3A4, which could allow fluorol to adjust/change its initial binding position. To better understand the substrate/inhibitor effects, the kinetics of CYP3A4–fluorol complex formation were measured by monitoring decay of fluorol emission in a stopped-flow spectrophotometer. […] Fluorol binding to WT and T224A CYP3A4 was biphasic within the studied time interval (2 s). The rate constants for the fast and slow phases (kfast and kslow, respectively) determined for ligand-free and progesterone-bound CYP3A4 were virtually independent on fluorol concentration (Figure 5A–D). […] Likewise, kslow was elevated for ritonavir- and GS8-bound WT CYP3A4 but remained unchanged for the T224A mutant.
(§2) Kinetics of CYP3A4–fluorol complex formation were measured in a SX.18MV stopped-flow apparatus (Applied Photophysics, Leatherhead, UK) at 23 °C in 50 mM phosphate buffer, pH 7.4, containing 0.6 mg/mL β-cyclodextrin. WT or T224A CYP3A4 (2 μM) was mixed with 0.25–4 μM fluorol solution prepared from 1–3 mM stocks in DMSO. Equal amounts of DMSO were added to the protein solutions to avoid buffer-related changes in fluorol emission. Fluorescence changes were monitored with λex of 455 nm and a 495 nm cutoff emission filter. […] Kinetics were analyzed using the Igor Pro software (WaveMetrics, Oswego, OR, USA).

WT CYP3A4 = target: T2, WT CYP3A4 (Homo sapiens, UniProt P08684); test: as above; type: binding
T2 construct: made in house
Experimental: as §1, §2

T224A CYP3A4 [2] = target: T1, T224A CYP3A4; test: Fluorol oxidation in a reconstituted system with cytochrome P450 reductase; type: in vitro ADME; settings: 25 μM fluorol, 1 μM CYP3A4, 2 μM CPR, 37 °C; substrate/product ratio
Experimental: This possibility was tested in a reconstituted system with cytochrome P450 reductase. […] The mass shift of +16 Da implies that fluorol undergoes a single-site oxidation.
Fluorol metabolism—Oxidation of fluorol by WT and T224A CYP3A4 was assessed in a reconstituted system with cytochrome P450 reductase. Reaction was carried out at 37 °C in 100 mM potassium phosphate, pH 7.4, containing catalase and superoxide dismutase (2 units/mL each), 1 μM WT or T224A CYP3A4, 2 μM CPR, NADPH regenerating system (10 mM glucose, 0.2 mM NADP^+, and 2 units/mL glucose-6-phosphate dehydrogenase), and 25 μM fluorol. After addition of 80 μM NADPH, samples were gently shaken, and 0.5 mL aliquots were taken in 15 min intervals. The reaction was stopped by adding 2 mL of dichloromethane. After 30 s vortexing, 1 mL of 0.3 M NaCl was added, and the sample was vortexed again and centrifuged for 10 min at 3000× g and 4 °C. The bottom organic phase (1 mL) was transferred to a glass vial, evaporated under the stream of nitrogen, and dissolved in 150 μL of methanol. Samples were analyzed by electrospray ionization mass spectroscopy using a Micromass LCP Premier mass spectrometer (Waters, Milford, MA, USA) in the negative ion mode, with 0.2 mL/min methanol flow. Chromatogram analysis and integrations were performed with Waters MassLynx MS software.

[3] = Fluorol solubility/aggregation monitored by emission changes; type: physicochemical; settings: 50 mM potassium phosphate, pH 7.4; with or without 0.6 mg/mL β-cyclodextrin
Experimental: In our working solution (50 mM potassium phosphate, pH 7.4), dependence of emission intensity on fluorol concentration was linear only within the 0.1–4 μM range (Figure S1A). Addition of 0.6 mg/mL β-cyclodextrin, reported to improve solubility of fluorol, made no difference. For consistency, β-cyclodextrin was included in the assay buffers, while the working concentration of fluorol was limited to 3 μM to avoid/minimize artefacts associated with fluorol aggregation.

[4] = parameters: method as in PMID 18831537; settings: cited from earlier work
CYP3A4 = CYP3A4 (Homo sapiens, UniProt P08684); parameters: method as in PMID 22194603; settings: prior study, cited from earlier work; for Kd: up to 60 μM fluorol
Chain of CYP3A4 (P08684 whole entry): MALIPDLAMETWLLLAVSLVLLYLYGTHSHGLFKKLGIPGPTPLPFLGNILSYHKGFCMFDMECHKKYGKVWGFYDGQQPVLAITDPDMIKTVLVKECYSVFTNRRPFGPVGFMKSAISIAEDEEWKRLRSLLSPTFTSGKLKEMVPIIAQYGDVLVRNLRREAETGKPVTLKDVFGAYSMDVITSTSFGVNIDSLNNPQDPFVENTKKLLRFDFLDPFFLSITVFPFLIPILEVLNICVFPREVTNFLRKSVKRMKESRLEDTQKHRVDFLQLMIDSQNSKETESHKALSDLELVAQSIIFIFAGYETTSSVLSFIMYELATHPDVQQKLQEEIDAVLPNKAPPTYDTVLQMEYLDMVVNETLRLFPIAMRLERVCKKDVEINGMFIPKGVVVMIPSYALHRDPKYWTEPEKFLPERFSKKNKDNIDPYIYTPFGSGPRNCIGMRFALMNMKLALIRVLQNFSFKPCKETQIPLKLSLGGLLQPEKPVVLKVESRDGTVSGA

T1 sequence (P08684 with tags, fused parts or gaps T224A): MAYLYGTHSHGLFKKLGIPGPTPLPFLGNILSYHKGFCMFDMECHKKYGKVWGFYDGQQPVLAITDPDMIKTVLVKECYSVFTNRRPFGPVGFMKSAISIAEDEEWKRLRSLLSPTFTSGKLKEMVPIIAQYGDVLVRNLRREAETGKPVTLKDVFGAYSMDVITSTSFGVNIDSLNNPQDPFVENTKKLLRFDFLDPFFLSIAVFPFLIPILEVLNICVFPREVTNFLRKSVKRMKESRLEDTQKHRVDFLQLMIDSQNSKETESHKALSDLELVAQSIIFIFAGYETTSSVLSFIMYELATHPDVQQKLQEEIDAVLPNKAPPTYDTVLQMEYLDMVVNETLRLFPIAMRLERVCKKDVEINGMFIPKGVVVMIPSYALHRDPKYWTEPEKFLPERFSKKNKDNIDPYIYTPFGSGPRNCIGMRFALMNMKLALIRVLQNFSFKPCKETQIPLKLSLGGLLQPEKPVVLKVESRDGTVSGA
T2 sequence (P08684 with tags, fused parts or gaps): as the sequence (P08684 with tags, fused parts or gaps T224A) above, with A204T counted along it

CCCCNc1ccc2c3c(cccc13)C(=O)N(CCCC)C2=O [fluorol, 2-butyl-6-(butylamino)-1H-benzo[de]isoquinoline-1,3(2H)-dione]
Amplitude of quenching, larger in T224A (T224A CYP3A4 [1]; ligand-free and progesterone/GS8-bound T224A CYP3A4): 35–50%
Amplitude of quenching, smaller in T224A (T224A CYP3A4 [1]; ritonavir-bound T224A CYP3A4): 60%
Fluorol binding kinetics (phases) (T224A CYP3A4 [1]; within 2 s): biphasic
Decrease in amplitude of quenching (WT CYP3A4; WT, in the presence of GS8, equimolar CYP3A4 and fluorol): ~ 20%
Increase in amplitude of quenching (WT CYP3A4; WT, in the presence of progesterone, equimolar CYP3A4 and fluorol): ~ 40%
Decrease in amplitude of quenching (WT CYP3A4; WT, in the presence of ritonavir, equimolar CYP3A4 and fluorol): ~ 20%
Fluorol binding kinetics (phases) (WT CYP3A4; within 2 s): biphasic
Efficiency of fluorol oxidation, mutant less efficient than WT (T224A CYP3A4 [2]): ~ 20%
Concentration range with linear dependence of emission intensity (no aggregation) [3]: 100 to 4000 nM
Aqueous solubility [4]: limited aqueous solubility
Kd (CYP3A4; read-out: Kd, high-affinity site (peripheral area)): ~3 µM
Kd (CYP3A4; read-out: Kd, low-affinity area (catalytic cavity)): 10 µM
Hill coefficient (CYP3A4): 1.93
